Experimental data from patent US3937820A, “Insulin composition providing alternatives to immunological resistance” (Hoechst Aktiengesellschaft, priority 1972, dated 1976).

Experiment: activity of the starting insulins in I.U./mg
Details: starting insulin; crystallized insulin calculated on dry substance

Substance	activity [I.U./mg]
crystallized insulin: pure crystallized complete insulin used as starting material	≥ 25
des-phenyl-alanine^B1 insulin [des-Phe^B1 insulin]	25
